{"source": "the METLIN SMRT retention time set (Domingo-Almenara et al. 2019)", "data": [{"experiment": "gradient 5% acetonitrile 3 min, to 50% in 2 min, to 85% in 15 min, held 3 min, 100 µL/min", "conditions": "column: Zorbax Extend-C18 2.1 x 50 mm; eluents: water / acetonitrile, 0.1% formic acid", "method_in_brief": "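Over 3 months, pure standards in mixtures of ~100 molecules were run by HPLC coupled to a quadrupole time-of-flight mass spectrometer in positive and negative ionization mode. The column was a Zorbax Extend-C18 (2.1 × 50 mm, 1.8 μm) at 100 μL/min, eluted with water and acetonitrile each holding 0.1% formic acid, with 40 μL dead and 900 μL dwell volumes. Retention time was determined from adduct peaks chosen by software and checked manually.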", "units": {"RP-LC retention time": "s"}, "values": [{"compound": "Cc1ccc(CN2CCN(C3CCN(S(=O)(=O)c4ccc(F)c(F)c4)CC3)C(=O)C2=O)cc1", "RP-LC retention time": 880}, {"compound": "Cc1oc(-c2cccs2)nc1COc1cc(C)c2c(C)nn(C)c2n1", "RP-LC retention time": 1060}, {"compound": "COc1ccc(NC(=O)N2CCC(c3nc(C(=O)N(C)C)c(C)o3)CC2)cc1OC", "RP-LC retention time": 635}, {"compound": "Cc1nn(CC(=O)NCC2CCCO2)c(=O)c2nn(-c3ccccc3)c(C)c12", "note": "(centres undefined)", "RP-LC retention time": 651}, {"compound": "Cc1ccc(-c2nnc(Cc3nc(-c4ccc(Br)cc4)no3)o2)cc1C", "RP-LC retention time": 1230}, {"compound": "Cc1cccc(C)c1NS(=O)(=O)c1cc2c3c(c1)CCC(=O)N3CCC2", "RP-LC retention time": 848}, {"compound": "CCCN1CCN(CCNc2nnc(-c3nc(C4CC4)no3)c3ccccc23)CC1", "RP-LC retention time": 597}, {"compound": "CC(Cc1cc2c(c(C(N)=O)c1)N(CCCO)CC2)NCCOc1ccccc1OCC(F)(F)F", "note": "(centres undefined)", "RP-LC retention time": 654}, {"compound": "O=C(CC1CCCCC1)NC1CCCN(c2ccc(=O)n(CC3CC3)n2)C1", "note": "(centres undefined)", "RP-LC retention time": 836}, {"compound": "N#Cc1ccc(CN2C[C@@H]3C(=O)N(CCN4CCc5ccccc5C4)C(=O)[C@@H]3C2)cc1", "RP-LC retention time": 618}, {"compound": "CN1C(=O)CN=C(c2ccccc2)c2cc([N+](=O)[O-])ccc21", "RP-LC retention time": 869}, {"compound": "Cc1cc(N2CCC(NC(=O)NCc3cccc(F)c3)C2=O)ccc1F", "note": "(centres undefined)", "RP-LC retention time": 903}, {"compound": "CCN1C(=O)c2cccnc2Sc2cc(NC(=O)c3ccccc3)ccc21", "RP-LC retention time": 812}, {"compound": "Cc1cc(C(=O)Nc2nc3ccc(S(=O)(=O)N(C)C)cc3s2)on1", "RP-LC retention time": 740}, {"compound": "COc1ccc(NC(=O)C2CCCN(c3nccnc3Oc3ccccc3)C2)cc1Cl", "note": "(centres undefined)", "RP-LC retention time": 1050}, {"compound": "CCc1nc(-c2csc(S(=O)(=O)N3CCCC(C(=O)Nc4ccc(Cl)cc4C)C3)c2)no1", "note": "(centres undefined)", "RP-LC retention time": 1100}, {"compound": "CCCn1c(=O)sc2cc(S(=O)(=O)N3CCC(C(=O)Nc4ccc(F)c(F)c4)CC3)ccc21", "RP-LC retention time": 1030}, {"compound": "CC1CCCN(c2nc(-c3ccc(Cl)cc3)nc3ccccc23)C1", "note": "(centres undefined)", "RP-LC retention time": 941}, {"compound": "CCOC(=O)c1c(C)c(C(=O)C(C)N(CC)C(=O)c2ccccc2Cl)c(C)n1CC", "note": "(centres undefined)", "RP-LC retention time": 1050}, {"compound": "Nc1nc(SCC(=O)c2ccc(-c3ccccc3)cc2)n[nH]1", "RP-LC retention time": 677}, {"compound": "Cc1ccc(C)c(NC(=O)CSc2nccc(N3CCN(c4cc(C)ccc4C)CC3)n2)c1", "RP-LC retention time": 989}, {"compound": "CCOc1ccc(NC(=O)N2CCC3(CC2)NC(=O)c2ccccc2O3)cc1", "RP-LC retention time": 739}, {"compound": "CCn1cc(C)c(C(=O)O)c1CC(=O)NCc1cccs1", "RP-LC retention time": 733}, {"compound": "COC(=O)c1ncn2c1C(=O)N(c1ccc(C)cc1C)C(C)(C(=O)NC1CCCC1)C2", "note": "(centres undefined)", "RP-LC retention time": 753}, {"compound": "O=C(c1cn2ccccc2n1)N1CCN(c2ccc(F)cc2)CC1", "RP-LC retention time": 652}, {"compound": "O=C(Nc1cccc(-c2nnc3n2CCCC3)c1)c1ccsc1", "RP-LC retention time": 659}, {"compound": "COc1ccc(S(=O)(=O)NCCCn2ccnc2)cc1C(C)(C)C", "RP-LC retention time": 589}, {"compound": "Cc1ccc(C)c(-c2csc(NC(=O)c3ccc(C)o3)n2)c1", "RP-LC retention time": 1100}, {"compound": "CCN(CCCNC(=O)C1CCCN(c2ncnc3c2nc2n3CCCCC2)C1)Cc1ccccc1", "note": "(centres undefined)", "RP-LC retention time": 623}, {"compound": "CCOC(=O)c1c(C)[nH]c(C(=O)N2CCCC(C(=O)NCc3ccccc3OC)C2)c1C", "note": "(centres undefined)", "RP-LC retention time": 785}, {"compound": "CCOC1CCN(C(=O)NC(C)C)CC1", "RP-LC retention time": 630}, {"compound": "Cc1ccc(S(=O)(=O)N2CCC(n3c(-c4ccoc4)nc4cccnc43)C2)cc1", "note": "(centres undefined)", "RP-LC retention time": 863}, {"compound": "O=C(Nc1cccnc1)c1cc(-c2ccnc(F)c2)ccc1OCc1ccccc1", "RP-LC retention time": 884}, {"compound": "CC(C)c1ccc(S(=O)(=O)N2CCC(C(=O)NCc3cscn3)CC2)cc1", "RP-LC retention time": 805}, {"compound": "Cc1ccn2cc(C(=O)NCc3cccs3)nc2c1", "RP-LC retention time": 591}, {"compound": "CC(C)CCNC(=O)C1CC(=O)N(c2n[nH]c3cccc(F)c23)C1", "note": "(centres undefined)", "RP-LC retention time": 699}, {"compound": "COc1ccc(OCc2nc(-c3cccc(-c4ccn[nH]4)c3)no2)cc1", "RP-LC retention time": 914}, {"compound": "COc1cccc(-c2c(C(=O)O)nnn2-c2ccc3c(c2)OCO3)c1", "RP-LC retention time": 743}, {"compound": "Cn1cc(S(=O)(=O)N2CCC(C(=O)NC3CC3)CC2)cc1C(=O)N1CCCC1", "RP-LC retention time": 641}, {"compound": "Cc1nnc(N2CCCC(C(=O)NCc3ccc(Cl)cc3)C2)c2nn(-c3ccccc3)c(C)c12", "note": "(centres undefined)", "RP-LC retention time": 760}, {"compound": "Cn1c(C(=O)Nc2cccc(Cl)c2)cc2c(=O)oc3ccccc3c21", "RP-LC retention time": 1050}, {"compound": "COc1ccc(NC(=O)N2CC=C(c3cn(C(C)C)c4ncccc34)CC2)cc1F", "RP-LC retention time": 920}, {"compound": "O=C(NCc1ccccc1C(F)(F)F)C1CCCN(c2ncnc3c2oc2ccccc23)C1", "note": "(centres undefined)", "RP-LC retention time": 861}, {"compound": "CCCn1c(C)cnc1C1CN(S(=O)(=O)c2ccc(Cl)c(Cl)c2)C1", "RP-LC retention time": 724}, {"compound": "O=C(Nc1ccc(F)cc1)N1CC2CN(S(=O)(=O)c3ccccc3)CC(C1)O2", "RP-LC retention time": 752}, {"compound": "COc1ccc(S(=O)(=O)N2CCC(C(=O)Nc3nccs3)CC2)cc1", "RP-LC retention time": 720}, {"compound": "COc1ccc(C)cc1NC(=O)N1CCC(c2nc(C(=O)N3CCCC3)c(C)o2)CC1", "RP-LC retention time": 865}, {"compound": "CN(C)C(=O)C1CN(C(=O)c2cccc(Br)c2)CC12CCOCC2", "note": "(centres undefined)", "RP-LC retention time": 619}, {"compound": "CCC(=O)N1CCc2cc(C(=O)N3CCN(c4ncccn4)CC3)ccc21", "RP-LC retention time": 697}, {"compound": "CCN(CC)CCCNC(=O)Cn1c(=O)c2cccn2c2ccccc21", "RP-LC retention time": 602}, {"compound": "CO[C@H]1CN(C(C)C)[C@H]1C1CCN(C(=O)C2CC=CC2)CC1", "RP-LC retention time": 593}, {"compound": "CCSc1nnc(-c2nn(C)c3c2CN(C(=O)CCc2ccccc2)CC3)n1C", "RP-LC retention time": 767}, {"compound": "O=C(NCC1(c2cccs2)CCOCC1)C(=O)NC1CCCC1", "RP-LC retention time": 775}, {"compound": "Cc1ccc(CC(=O)N2CCN(c3cc(-c4cccs4)[nH]n3)CC2)cc1", "RP-LC retention time": 758}, {"compound": "O=C(c1ccc2cc[nH]c2c1)N1C[C@@H]2C[C@H]1C[C@@H]2NS(=O)(=O)c1ccccc1", "RP-LC retention time": 766}, {"compound": "O=C1NC2(CCN(C(=O)Nc3ccc(Cl)cc3)CC2)N=C1c1ccccc1", "RP-LC retention time": 829}, {"compound": "Cn1c(CN2CCN(C(=O)NC(c3ccccc3)c3ccccc3)CC2)nc2ccccc21", "RP-LC retention time": 620}, {"compound": "Cc1cccc(CNC(=O)C2CCN(C(=O)C3Sc4ccccc4NC3=O)CC2)c1", "note": "(centres undefined)", "RP-LC retention time": 762}, {"compound": "Cc1ccc(S(=O)(=O)N2CCCC(Cn3c(C)nc4cccnc43)C2)cc1", "note": "(centres undefined)", "RP-LC retention time": 707}, {"compound": "CC(C)OCCCNC(=O)c1cc2n(n1)CCCN(Cc1ccc(Cl)cc1)C2=O", "RP-LC retention time": 855}, {"compound": "CSCCC(NS(=O)(=O)c1ccc(Oc2ccccc2C)cc1)C(=O)O", "note": "(centres undefined)", "RP-LC retention time": 852}, {"compound": "COCCc1noc([C@@H]2CN(Cc3ccc4[nH]ccc4c3)C[C@H]2CO)n1", "RP-LC retention time": 592}, {"compound": "COc1ccc2c(c1)C1(CCN(C(=O)c3ccc(F)cc3)C1)C(=O)N2C", "note": "(centres undefined)", "RP-LC retention time": 759}, {"compound": "CC(C)CC(=O)N1CCC(Oc2nccnc2N(C)C)C1", "note": "(centres undefined)", "RP-LC retention time": 691}, {"compound": "O=C(Cn1nc2c(N3CCc4ccccc4C3)nccn2c1=O)NC1CCCC1", "RP-LC retention time": 793}, {"compound": "CCc1ccc(CNC(=O)C2CCCN(c3nccnc3Sc3ccccc3)C2)cc1", "note": "(centres undefined)", "RP-LC retention time": 1140}, {"compound": "COC(=O)c1cccc(NC(=O)CCc2cccc3[nH]ccc23)c1", "RP-LC retention time": 847}, {"compound": "Cc1nnc(C2CCCN(C(=O)c3cc(C(F)(F)F)cc(C(F)(F)F)c3)C2)s1", "note": "(centres undefined)", "RP-LC retention time": 823}, {"compound": "CC(C)c1ccccc1NS(=O)(=O)c1cc(-c2nc(C(C)(C)C)cs2)cs1", "RP-LC retention time": 603}, {"compound": "Cc1ccc(C)c(C(=O)N2CCC(COc3ccc(C(=O)NC(C)C)cc3)CC2)c1", "RP-LC retention time": 912}, {"compound": "COc1cc(OC)c(NC(=O)N(C)CCc2noc(COc3ccccc3)n2)cc1Cl", "RP-LC retention time": 957}, {"compound": "Cc1ccc2nc(-c3ccccc3O)c(Nc3ccc(Cl)cc3)n2c1", "RP-LC retention time": 781}, {"compound": "O=S(=O)(c1ccc(F)cc1)N1CCc2nc(-c3ccc(F)cc3)ncc2C1", "RP-LC retention time": 1070}, {"compound": "Cc1ccc(C)c(NC(=O)N(C)CCc2noc(COc3ccccc3)n2)c1", "RP-LC retention time": 934}, {"compound": "Cc1cccc(Cn2c(CN3CCC(C(=O)NCc4cccs4)CC3)cc3ccccc32)c1", "RP-LC retention time": 805}, {"compound": "Cc1ccc(-c2noc(-c3nc(-c4ccccn4)no3)n2)cc1", "RP-LC retention time": 1090}, {"compound": "CC1=C(c2cccc(Cl)c2)S(=O)(=O)N=C1N1CCC(NC(=O)C2CCC2)CC1", "RP-LC retention time": 840}, {"compound": "O=[N+]([O-])c1cccc2cn[nH]c12", "RP-LC retention time": 767}, {"compound": "CCOC(=O)c1noc2ncnc(NCC3CCN(Cc4cccc(Cl)c4)CC3)c12", "RP-LC retention time": 603}, {"compound": "CCOC(=O)CNC(=O)N1CCN(Cc2nc3cccnc3n2-c2ccccc2)CC1", "RP-LC retention time": 585}, {"compound": "COc1ccc(-c2csc(Cc3nc(-c4cccc(Cl)c4)no3)n2)cc1OC", "RP-LC retention time": 1160}, {"compound": "O=C1NCCCn2cc(S(=O)(=O)NCc3ccccc3Cl)cc21", "RP-LC retention time": 686}, {"compound": "CN1C(=O)c2cccn2CC1CNC(=O)c1[nH]nc2c1COc1ccccc1-2", "note": "(centres undefined)", "RP-LC retention time": 685}, {"compound": "CCOC(=O)c1c(S(=O)(=O)N2CCC(C(=O)NC(C)CC)CC2)c(C)n(C)c1C", "note": "(centres undefined)", "RP-LC retention time": 747}, {"compound": "Cc1cc(OCC(=O)Nc2nc(-c3ccccc3)cs2)ccc1Cl", "RP-LC retention time": 1180}, {"compound": "Cc1nc2cc(N3CCCC(C(=O)NCCN4CCCCCC4)C3)cnc2nc1C", "note": "(centres undefined)", "RP-LC retention time": 592}, {"compound": "Cc1cc(C)nc(Nc2nc(C(=O)Nc3ccc(N4CCOCC4)cc3)cs2)n1", "RP-LC retention time": 746}, {"compound": "COc1ccc(Cl)cc1-c1nc(-c2ccc3oc(C)nc3c2)no1", "RP-LC retention time": 1060}, {"compound": "Cc1ccccc1OCC(=O)N1C[C@@H]2C[C@H](NC(=O)c3ccccc3)[C@H]1C2", "RP-LC retention time": 813}]}]}
